Source: paper PMC4008261, “Rewiring of regenerated axons by combining treadmill training with semaphorin3A inhibition” (Molecular Brain, 2014)

How the values were obtained:
[1] = test system: Transcription response, NF-kB; assay: Pharmacological profile: transcription response; assay type: cell-based
Source text: (§1) Table 1 Pharmacological profile of SM-345431 (part 1) | column: IC50 (μm)

[2] = test system: Transcription response, NF-AT; assay: Pharmacological profile: transcription response; assay type: cell-based
Source text: as §1

[3] = test system: Adhesion, VCAM-1-Mediated; assay: Pharmacological profile: cell adhesion; assay type: cell-based
Source text: as §1

[4] = test system: Adhesion, ICAM-1-Mediated; assay: Pharmacological profile: cell adhesion; assay type: cell-based
Source text: as §1

[5] = test system: Adhesion, fibronectin-mediated; assay: Pharmacological profile: cell adhesion; assay type: cell-based
Source text: as §1

Semaphorin = Semaphorin (Homo sapiens, UniProt Q14563); assay: Pharmacological profile: semaphorin inhibition; assay type: cell-based
Source text: In our previous study, we used an osmotic mini-pump to deliver the semaphorin3A inhibitor SM-216289 [20]. However, in clinical practice, this type of invasive drug delivery method is not ideal. Therefore, we developed a novel DDS that utilizes a silicone matrix to continuously deliver SM-345431 (a newly developed semaphorin3A inhibitor) intrathecally. We evaluated the drug release profile of SM-345431 in this new silicone matrix preparation and the potency of SM-345431-mediated semaphorin3A inhibition in vitro (Figure 1). […] When chick embryonic DRG explants and semaphorin3A-expressing COS7 cell aggregates (semaphorin3A-COS) were co-cultured in a collagen gel, the neurites of the DRG explants grew away from the semaphorin3A-COS, as shown in Figure 1B. […] We also evaluated the selectivity of SM-345431 for semaphorin3A inhibition by examining the pharmacological profile of SM-345431 (Tables 1 and 2). […] The release of SM-345431 (0.1 mg/mg loading 10%) in vivo was calculated as 0.5-0.7 μg/day, and this dose was similar to the dose of the semaphorin3A inhibitor (SM-216289) that we administered using osmotic mini pumps in our previous study. […]

EphA4 = EphA4 (Homo sapiens, UniProt P54764); assay: Kinase inhibition test; assay type: biochemical
Source text: (§2) Table 2 Pharmacological profile of SM-345431 (part 2) | column: IC50 (μm)

EphA2 = EphA2 (Homo sapiens, UniProt P29317); assay: Kinase inhibition test; assay type: biochemical
Source text: as §2

cSRC = cSRC (Homo sapiens, UniProt P12931); assay: Kinase inhibition test; assay type: biochemical
Source text: as §2

TrkA = TrkA (Homo sapiens, UniProt P04629); assay: Kinase inhibition test; assay type: biochemical
Source text: as §2

PKCγ = PKCγ (Homo sapiens, UniProt P05129); assay: Kinase inhibition test; assay type: biochemical
Source text: as §2

TrkB = TrkB (Homo sapiens, UniProt Q16620); assay: Kinase inhibition test; assay type: biochemical
Source text: as §2

FGFR1 = FGFR1 (Homo sapiens, UniProt P11362); assay: Kinase inhibition test; assay type: biochemical
Source text: as §2

EphB4 = EphB4 (Homo sapiens, UniProt P54760); assay: Kinase inhibition test; assay type: biochemical
Source text: as §2

Fes = Fes (Homo sapiens, UniProt P07332); assay: Kinase inhibition test; assay type: biochemical
Source text: as §2

JAK3 = JAK3 (Homo sapiens, UniProt P52333); assay: Kinase inhibition test; assay type: biochemical
Source text: as §2

KDR = KDR (Homo sapiens, UniProt P35968); assay: Kinase inhibition test; assay type: biochemical
Source text: as §2

IGF-1R = IGF-1R (Homo sapiens, UniProt P08069); assay: Kinase inhibition test; assay type: biochemical
Source text: as §2

FGFR4 = FGFR4 (Homo sapiens, UniProt P22455); assay: Kinase inhibition test; assay type: biochemical
Source text: as §2

Flt3 = Flt3 (Homo sapiens, UniProt P36888); assay: Kinase inhibition test; assay type: biochemical
Source text: as §2

MKK6 = MKK6 (Homo sapiens, UniProt P52564); assay: Kinase inhibition test; assay type: biochemical
Source text: as §2

GSK3α = GSK3α (Homo sapiens, UniProt P49840); assay: Kinase inhibition test; assay type: biochemical
Source text: as §2

CaMKII = assay: Kinase inhibition test; assay type: biochemical
Source text: as §2

CDK5/p35 = CDK5/p35 (Homo sapiens, UniProt Q00535); assay: Kinase inhibition test; assay type: biochemical
Source text: as §2

MEK1 = MEK1 (Homo sapiens, UniProt Q02750); assay: Kinase inhibition test; assay type: biochemical
Source text: as §2

ROCK-I = ROCK-I (Homo sapiens, UniProt Q13464); assay: Kinase inhibition test; assay type: biochemical
Source text: as §2

FGFR3 = FGFR3 (Homo sapiens, UniProt P22607); assay: Kinase inhibition test; assay type: biochemical
Source text: as §2

Sequence of Semaphorin (Q14563 21-771): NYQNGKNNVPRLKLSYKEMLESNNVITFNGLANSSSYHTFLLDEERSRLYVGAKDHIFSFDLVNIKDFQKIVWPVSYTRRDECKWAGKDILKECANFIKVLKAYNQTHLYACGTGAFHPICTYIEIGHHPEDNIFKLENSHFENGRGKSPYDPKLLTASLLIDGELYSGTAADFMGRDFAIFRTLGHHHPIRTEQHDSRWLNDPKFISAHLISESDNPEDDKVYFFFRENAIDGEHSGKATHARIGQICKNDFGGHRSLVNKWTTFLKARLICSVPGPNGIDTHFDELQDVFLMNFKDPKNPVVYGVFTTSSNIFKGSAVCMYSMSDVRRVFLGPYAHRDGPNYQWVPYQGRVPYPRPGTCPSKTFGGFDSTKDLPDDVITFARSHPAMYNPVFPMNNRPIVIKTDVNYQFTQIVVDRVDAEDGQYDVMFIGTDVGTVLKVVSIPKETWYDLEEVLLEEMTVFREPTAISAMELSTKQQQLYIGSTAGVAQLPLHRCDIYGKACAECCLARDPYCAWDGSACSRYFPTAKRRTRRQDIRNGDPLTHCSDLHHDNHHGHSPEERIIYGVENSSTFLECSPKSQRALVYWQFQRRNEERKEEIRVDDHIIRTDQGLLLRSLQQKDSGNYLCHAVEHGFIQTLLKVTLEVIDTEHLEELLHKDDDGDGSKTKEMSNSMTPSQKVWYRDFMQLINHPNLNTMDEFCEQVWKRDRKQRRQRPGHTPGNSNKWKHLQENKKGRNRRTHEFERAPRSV
Sequence of JAK3 (P52333 whole entry, species assumed): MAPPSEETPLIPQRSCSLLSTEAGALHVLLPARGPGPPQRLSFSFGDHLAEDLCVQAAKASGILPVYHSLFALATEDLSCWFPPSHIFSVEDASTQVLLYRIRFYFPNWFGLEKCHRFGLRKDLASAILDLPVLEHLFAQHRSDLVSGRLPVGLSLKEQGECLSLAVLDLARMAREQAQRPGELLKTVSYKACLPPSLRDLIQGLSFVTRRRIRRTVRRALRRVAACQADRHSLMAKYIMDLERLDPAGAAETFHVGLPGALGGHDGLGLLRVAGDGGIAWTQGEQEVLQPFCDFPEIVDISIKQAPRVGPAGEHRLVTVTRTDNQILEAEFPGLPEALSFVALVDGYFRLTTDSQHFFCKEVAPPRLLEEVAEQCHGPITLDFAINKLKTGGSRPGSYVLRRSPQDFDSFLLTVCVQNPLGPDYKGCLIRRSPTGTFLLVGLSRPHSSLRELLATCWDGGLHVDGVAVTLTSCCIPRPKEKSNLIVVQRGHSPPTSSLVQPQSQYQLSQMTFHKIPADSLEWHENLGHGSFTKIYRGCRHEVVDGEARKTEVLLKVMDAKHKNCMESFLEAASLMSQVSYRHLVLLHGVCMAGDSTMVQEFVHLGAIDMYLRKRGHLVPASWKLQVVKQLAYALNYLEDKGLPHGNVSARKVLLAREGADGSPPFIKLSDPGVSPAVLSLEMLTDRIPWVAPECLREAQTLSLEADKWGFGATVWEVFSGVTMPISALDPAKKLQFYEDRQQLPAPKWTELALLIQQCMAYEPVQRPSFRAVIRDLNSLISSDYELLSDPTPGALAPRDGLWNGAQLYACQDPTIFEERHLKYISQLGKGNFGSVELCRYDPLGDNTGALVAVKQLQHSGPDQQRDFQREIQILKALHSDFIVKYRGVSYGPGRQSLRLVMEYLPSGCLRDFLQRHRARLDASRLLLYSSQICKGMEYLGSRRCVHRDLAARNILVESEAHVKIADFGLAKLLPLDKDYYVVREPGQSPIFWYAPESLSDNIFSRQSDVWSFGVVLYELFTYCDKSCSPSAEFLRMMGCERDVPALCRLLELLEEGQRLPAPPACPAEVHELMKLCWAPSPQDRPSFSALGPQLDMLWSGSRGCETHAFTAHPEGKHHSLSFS
Sequence of FGFR1 (P11362 22-822, species assumed): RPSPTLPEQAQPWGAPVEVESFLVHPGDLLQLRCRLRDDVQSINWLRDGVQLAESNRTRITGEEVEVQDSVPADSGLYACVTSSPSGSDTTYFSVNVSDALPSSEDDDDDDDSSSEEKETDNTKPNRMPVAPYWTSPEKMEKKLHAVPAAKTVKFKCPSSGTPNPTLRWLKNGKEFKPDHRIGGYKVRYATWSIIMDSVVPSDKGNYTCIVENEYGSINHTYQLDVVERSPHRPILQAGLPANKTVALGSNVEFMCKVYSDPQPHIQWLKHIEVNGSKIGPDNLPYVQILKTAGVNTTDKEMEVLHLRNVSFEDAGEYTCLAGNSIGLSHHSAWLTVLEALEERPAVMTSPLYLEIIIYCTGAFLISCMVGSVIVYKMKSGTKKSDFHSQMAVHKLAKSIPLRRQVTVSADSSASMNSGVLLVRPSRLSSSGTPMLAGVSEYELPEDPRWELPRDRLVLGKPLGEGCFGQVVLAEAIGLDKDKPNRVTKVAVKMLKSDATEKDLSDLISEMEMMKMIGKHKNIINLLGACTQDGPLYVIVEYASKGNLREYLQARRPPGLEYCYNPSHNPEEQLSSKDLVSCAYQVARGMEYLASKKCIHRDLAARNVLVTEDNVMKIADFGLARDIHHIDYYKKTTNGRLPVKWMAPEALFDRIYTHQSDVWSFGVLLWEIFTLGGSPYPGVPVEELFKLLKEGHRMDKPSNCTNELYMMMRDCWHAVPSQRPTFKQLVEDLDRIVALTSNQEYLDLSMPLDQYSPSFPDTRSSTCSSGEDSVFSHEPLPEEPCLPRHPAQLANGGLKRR
Sequence of Fes (P07332 whole entry, species assumed): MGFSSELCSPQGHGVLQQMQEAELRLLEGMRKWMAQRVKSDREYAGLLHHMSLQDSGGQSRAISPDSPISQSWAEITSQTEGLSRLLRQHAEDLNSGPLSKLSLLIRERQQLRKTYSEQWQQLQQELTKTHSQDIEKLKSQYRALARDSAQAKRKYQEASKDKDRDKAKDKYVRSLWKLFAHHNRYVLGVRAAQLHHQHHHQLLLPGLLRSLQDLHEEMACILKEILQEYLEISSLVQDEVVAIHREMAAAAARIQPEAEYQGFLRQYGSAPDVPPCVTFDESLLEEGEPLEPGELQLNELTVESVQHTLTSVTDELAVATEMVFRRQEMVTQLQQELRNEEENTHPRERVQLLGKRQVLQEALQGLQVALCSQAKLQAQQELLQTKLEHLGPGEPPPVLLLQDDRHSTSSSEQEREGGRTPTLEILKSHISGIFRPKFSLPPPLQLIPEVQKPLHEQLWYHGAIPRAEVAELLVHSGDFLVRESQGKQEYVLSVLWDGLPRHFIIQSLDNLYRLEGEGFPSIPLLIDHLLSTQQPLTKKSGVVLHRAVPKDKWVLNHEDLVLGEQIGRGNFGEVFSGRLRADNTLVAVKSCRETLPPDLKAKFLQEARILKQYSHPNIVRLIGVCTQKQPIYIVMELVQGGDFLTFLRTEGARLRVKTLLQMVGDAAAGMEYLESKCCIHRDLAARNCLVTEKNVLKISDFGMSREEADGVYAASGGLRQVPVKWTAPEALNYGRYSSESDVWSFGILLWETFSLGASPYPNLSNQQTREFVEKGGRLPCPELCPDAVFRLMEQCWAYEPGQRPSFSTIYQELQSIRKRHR
Sequence of MEK1 (Q02750 whole entry, species assumed): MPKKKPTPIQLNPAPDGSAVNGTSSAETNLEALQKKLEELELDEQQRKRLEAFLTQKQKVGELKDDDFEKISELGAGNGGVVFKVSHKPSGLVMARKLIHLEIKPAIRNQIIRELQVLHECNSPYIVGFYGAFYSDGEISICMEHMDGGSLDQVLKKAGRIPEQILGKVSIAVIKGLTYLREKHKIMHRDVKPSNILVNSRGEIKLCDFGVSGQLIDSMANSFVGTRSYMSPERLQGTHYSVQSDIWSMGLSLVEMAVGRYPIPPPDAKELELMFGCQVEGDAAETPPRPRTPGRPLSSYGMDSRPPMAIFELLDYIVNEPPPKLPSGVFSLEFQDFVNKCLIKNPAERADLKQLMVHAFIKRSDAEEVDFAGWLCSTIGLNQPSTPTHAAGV
Sequence of TrkA (P04629 33-796, species assumed): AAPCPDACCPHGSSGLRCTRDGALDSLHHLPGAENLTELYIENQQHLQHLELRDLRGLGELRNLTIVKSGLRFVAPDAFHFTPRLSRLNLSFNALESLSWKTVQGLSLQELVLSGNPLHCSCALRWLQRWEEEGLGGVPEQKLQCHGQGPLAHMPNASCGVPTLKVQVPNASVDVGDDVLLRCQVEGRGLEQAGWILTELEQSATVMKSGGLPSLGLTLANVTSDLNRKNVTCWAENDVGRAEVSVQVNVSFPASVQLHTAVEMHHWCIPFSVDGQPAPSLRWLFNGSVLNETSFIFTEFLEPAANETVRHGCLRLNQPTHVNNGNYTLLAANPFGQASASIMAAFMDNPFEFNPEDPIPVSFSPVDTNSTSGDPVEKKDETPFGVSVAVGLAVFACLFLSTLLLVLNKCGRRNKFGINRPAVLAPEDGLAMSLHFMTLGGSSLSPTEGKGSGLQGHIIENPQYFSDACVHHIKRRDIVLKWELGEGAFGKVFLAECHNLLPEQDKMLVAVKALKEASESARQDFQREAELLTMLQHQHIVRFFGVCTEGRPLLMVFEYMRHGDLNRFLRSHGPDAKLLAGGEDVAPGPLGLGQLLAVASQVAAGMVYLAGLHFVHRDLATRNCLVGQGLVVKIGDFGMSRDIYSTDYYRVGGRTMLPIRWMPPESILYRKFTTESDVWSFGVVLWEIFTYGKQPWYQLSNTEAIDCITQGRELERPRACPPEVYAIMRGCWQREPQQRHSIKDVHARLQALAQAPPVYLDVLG
Sequence of MKK6 (P52564 whole entry, species assumed): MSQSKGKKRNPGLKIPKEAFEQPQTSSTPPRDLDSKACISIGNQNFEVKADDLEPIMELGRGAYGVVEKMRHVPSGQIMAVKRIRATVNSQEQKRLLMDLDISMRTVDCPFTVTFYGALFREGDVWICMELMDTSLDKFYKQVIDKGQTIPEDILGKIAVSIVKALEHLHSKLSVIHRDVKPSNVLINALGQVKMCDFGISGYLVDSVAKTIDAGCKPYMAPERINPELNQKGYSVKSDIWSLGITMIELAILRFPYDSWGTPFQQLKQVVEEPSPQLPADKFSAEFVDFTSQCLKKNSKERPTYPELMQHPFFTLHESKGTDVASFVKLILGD

In the case of `CC(=O)c1cc2c(=O)c3c(C(=O)O)c(O)c(O)cc3oc2c(C(C)=O)c1-c1coc2cc(O)c(O)c(C(=O)O)c2c1=O` [SM-345431, Vinaxanthone], the IC50 [1] is reported as > 10 µM, the IC50 [2] is reported as > 10 µM and the IC50 [3] is reported as > 10 µM. For the same molecule, the IC50 [4] was > 10 µM, the IC50 [5] was > 10 µM and the IC50 (Semaphorin) was 0.1 to 0.2 µM. For the same molecule, the “semaphorin3A inhibitory activity compared with SM-216289” value (Semaphorin) was “approximately the same semaphorin3A inhibitory activity as SM-216289”, the IC50 (EphA4) was 0.8 µM and the IC50 (EphA2) was > 10 µM. For the same molecule, the IC50 (cSRC) was > 10 µM, the IC50 (TrkA) was > 10 µM and the IC50 (PKCγ) was > 10 µM. The IC50 (TrkB) was > 10 µM, the IC50 (FGFR1) was > 10 µM and the IC50 (EphB4) was > 10 µM. For the same molecule, the IC50 (Fes) was > 10 µM, the IC50 (JAK3) was > 10 µM and the IC50 (KDR) was > 10 µM. For the same molecule, the IC50 (IGF-1R) was > 10 µM, the IC50 (FGFR4) was 0.64 µM and the IC50 (Flt3) was > 10 µM. The IC50 (MKK6) was > 10 µM, the IC50 (GSK3α) was 2.46 µM and the IC50 (CaMKII) was > 10 µM. The IC50 (CDK5/p35) was > 10 µM, the IC50 (MEK1) was > 10 µM and the IC50 (ROCK-I) was > 10 µM. It also gave an IC50 (FGFR3) of 0.77 µM.
